According to patent publication US12552826B2, “PRMT5 inhibitors” (Merck Sharp & Dohme LLC, priority 2018, dated 2026):
Like-named read-outs stand apart in the source and are kept apart here.

What was measured:
[1] = target: T1, PRMT5-MEP50 enzyme complex (Homo sapiens, UniProt O14744); assay: PRMT5-MEP50 Enzyme Methylation Assay; assay type: biochemical
T1 construct: Full-length (FL)-PRMT5-MEP50 enzyme complex (recombinant proteins from baculovirus-transfected Sf21 cells); made in house; host or cells: baculovirus-transfected Sf21 insect cells
Protocol: PRMT5-MEP50 biochemical assay is a direct measurement of the methylation activity of the enzyme complex on a short peptide substrate derived from the N-terminus of H4 histone. Methylation experiment is performed with recombinant PRMT5-MEP50 protein complex. The assessment of inhibitory effect of small molecules is measured by the effectiveness of the compounds to inhibit this reaction (EC50).
In this assay, the potency (EC50) of each compound was determined from a twenty-point (1:2 serial dilution; top compound concentration of 100000 nM) titration curve using the following outlined procedure. To each well of a white ProxiPlus 384 well-plate, 100 nL of compound (1% DMSO in final assay volume of 10 μL) was dispensed, followed by the addition of 8 μL of 1× assay buffer (50 mM Bicine pH 8.0, 1 mM DTT, 0.004% Tween20, 0.01% BSA) containing 1.25 nM of Full-length (FL)-PRMT5-MEP50 enzyme complex (recombinant proteins from baculovirus-transfected Sf21 cells: FL-PRMT5; MW=[…] and FL-MEP50; MW=38614) and 1 μL of 150 μM S-(5′-Adenosyl)-L-Methionine Chloride (SAM). Plates were sealed and placed in a 37° C. humidified chamber for a 60 minutes pre-incubation with compound. Subsequently, each reaction was initiated by the addition of 1 μL 1× assay buffer containing 750 nM biotinylated H4R3 (Me1) peptide. The final reaction in each well of 10 μL consists of 1.0 nM PRMT5-MEP50, 75 nM biotinylated-peptide, and 15 μM SAM. Methylation reactions were allowed to proceed for 150 minutes in a sealed plate at 37° C. Reactions were immediately quenched by the addition of 1 μL of 5% formic acid. Plates were then frozen and shipped to SAMDITM Tech Inc. to determine the percent conversion from H4R^3 (Me1) to H4R^3 (Me2). Dose-response curves were generated by plotting percent effect (% product conversion; Y-axis) vs. Log10 compound concentrations (X-axis). EC50 values were determined by non-linear regression according to models for either sigmoidal (4 parameters) or biphasic (7 parameters) dose-response curves.

[2] = target: T2, PRMT5 (Homo sapiens, UniProt O14744); assay: PRMT5 Cell Target Engagement (TE) Assay; assay type: cell-based; conditions: MCF-7 cells, 3 days treatment, nuclear SDMA by high content imaging
T2 construct: endogenous in cells; host or cells: MCF-7
Outline: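 MCF-7 cells seeded 5 h, then treated 3 days at 37 °C with 10-point 1:3 dilutions from 10000 nM. Fixed cells immunostained for SDMA with AF488 secondary; nuclear intensity imaged per cell and expressed as % inhibition vs DMSO. EC50 from 4-parameter robust fit.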

[3] = recombinant FL-PRMT5-MEP50, biotinylated H4R3(Me1) peptide, 15 μM SAM, single EC50 (4 parameter sigmoidal fit) or first EC50 of 7 parameter biphasic fit, read-out: Enzyme Methylation Assay (EC50 or EC50_1)
[4] = second EC50 of 7 parameter biphasic fit, read-out: Enzyme Methylation Assay (EC50_2)

T1 sequence (O14744 whole entry): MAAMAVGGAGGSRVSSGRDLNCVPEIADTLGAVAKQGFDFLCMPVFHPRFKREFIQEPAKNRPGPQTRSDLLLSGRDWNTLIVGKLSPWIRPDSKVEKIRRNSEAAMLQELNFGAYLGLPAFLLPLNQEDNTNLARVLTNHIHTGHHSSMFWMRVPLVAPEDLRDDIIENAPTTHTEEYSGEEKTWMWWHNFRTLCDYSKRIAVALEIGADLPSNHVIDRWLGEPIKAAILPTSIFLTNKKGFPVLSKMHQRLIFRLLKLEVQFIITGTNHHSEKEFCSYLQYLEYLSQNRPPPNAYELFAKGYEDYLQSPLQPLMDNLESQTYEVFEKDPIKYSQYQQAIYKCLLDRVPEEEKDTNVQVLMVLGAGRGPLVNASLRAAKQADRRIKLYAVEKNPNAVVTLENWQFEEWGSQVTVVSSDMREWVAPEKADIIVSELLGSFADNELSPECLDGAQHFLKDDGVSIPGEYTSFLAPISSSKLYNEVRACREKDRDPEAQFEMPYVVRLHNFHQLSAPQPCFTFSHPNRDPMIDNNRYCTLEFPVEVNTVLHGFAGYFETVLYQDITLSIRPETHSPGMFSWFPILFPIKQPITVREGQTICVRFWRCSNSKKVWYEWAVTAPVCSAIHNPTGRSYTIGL
T1 sequence (Q9BQA1 whole entry partner): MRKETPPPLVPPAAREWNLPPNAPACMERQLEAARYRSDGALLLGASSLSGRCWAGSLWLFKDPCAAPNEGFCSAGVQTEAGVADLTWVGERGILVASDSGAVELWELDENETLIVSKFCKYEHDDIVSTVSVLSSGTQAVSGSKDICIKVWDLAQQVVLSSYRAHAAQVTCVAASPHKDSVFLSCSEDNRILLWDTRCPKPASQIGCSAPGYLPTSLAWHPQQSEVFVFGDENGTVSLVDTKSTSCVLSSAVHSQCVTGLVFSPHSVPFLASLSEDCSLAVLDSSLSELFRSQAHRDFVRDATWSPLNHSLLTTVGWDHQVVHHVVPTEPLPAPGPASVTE
T2 sequence (O14744 whole entry): as the sequence (O14744 whole entry) above
T2 sequence (Q9BQA1 whole entry partner): as the sequence (Q9BQA1 whole entry partner) above

| SMILES | EC50 [1, 3] | EC50 [1, 4] | EC50 [2] |
| --- | --- | --- | --- |
| C[C@@]1(O)[C@@H]([C@H](O)c2ccc(F)c(Cl)c2)O[C@@H](n2ccc3c(N)ncnc32)[C@@H]1O [Example 15, 7-[(5R)-5-C-(3-chloro-4-fluorophenyl)-3-C-methyl-beta-D-ribofuranosyl]-7H-pyrrolo[2,3-d]pyrimidin-4-amine] | 0.51 nM | 75 nM | 65 nM |
| C[C@@]1(O)[C@@H]([C@H](O)c2ccc(Cl)c(Cl)c2)O[C@@H](n2ccc3c(N)ncnc32)[C@@H]1O [Example 13, 7-[(5R)-5-C-(3,4-dichlorophenyl)-3-C-methyl-beta-D-ribofuranosyl]-7H-pyrrolo[2,3-d]pyrimidin-4-amine] | 1.47 nM | 40 nM | 39 nM |
| C[C@@]1(O)[C@@H]([C@H](O)c2cccc3c2CNCC3)O[C@@H](n2ccc3c(N)ncnc32)[C@@H]1O [Example 70, 7-[(5R)-3-C-methyl-5-C-(1,2,3,4-tetrahydroisoquinolin-8-yl)-beta-D-ribofuranosyl]-7H-pyrrolo[2,3-d]pyrimidin-4-amine] | 1.79 nM | 42 nM | 1190 nM |
| C[C@@]1(O)[C@@H]([C@@H](O)c2cccc3c2CNCC3)O[C@@H](n2ccc3c(N)ncnc32)[C@@H]1O [Example 71, 7-[(5S)-3-C-methyl-5-C-(1,2,3,4-tetrahydroisoquinolin-8-yl)-beta-D-ribofuranosyl]-7H-pyrrolo[2,3-d]pyrimidin-4-amine] | 15.5 nM | 1700 nM | > 10000 nM |
| Cc1ncnc2c1ccn2[C@@H]1O[C@H]([C@H](C)c2cccc3c2CNCC3)[C@@](C)(O)[C@H]1O [Example 86, (2R,3S,4R,5R)-3-methyl-5-(4-methyl-7H-pyrrolo[2,3-d]pyrimidin-7-yl)-2-((R)-1-(1,2,3,4-tetrahydroisoquinolin-8-yl)ethyl)tetrahydrofuran-3,4-diol] | 343 nM | 33100 nM | > 10000 nM |
| C[C@@]1(O)[C@@H]([C@@H](O)c2cc(F)cc(C(F)(F)F)c2)O[C@@H](n2ccc3c(N)ncnc32)[C@@H]1O [Example 59, 7-{(5S)-5-C-[3-fluoro-5-(trifluoromethyl)phenyl]-3-C-methyl-beta-D-ribofuranosyl}-7H-pyrrolo[2,3-d]pyrimidin-4-amine] |  |  | > 10000 nM |
| C=C(c1cccc2c1CNCC2)[C@H]1O[C@@H](n2ccc3c(C)ncnc32)[C@H](O)[C@]1(C)O [Example 85, (2R,3S,4R,5R)-3-methyl-5-(4-methyl-7H-pyrrolo[2,3-d]pyrimidin-7-yl)-2-(1-(1,2,3,4-tetrahydroisoquinolin-8-yl)vinyl)tetrahydrofuran-3,4-diol] | 34 nM | 2660 nM | 9380 nM |
| C[C@@]1(O)[C@@H]([C@@H](O)c2cccc(C(F)F)c2)O[C@@H](n2ccc3c(N)ncnc32)[C@@H]1O [Example 57, 7-{(5S)-5-C-[3-(difluoromethyl)phenyl]-3-C-methyl-beta-D-ribofuranosyl}-7H-pyrrolo[2,3-d]pyrimidin-4-amine] |  |  | > 10000 nM |
| C[C@@]1(O)[C@@H]([C@@H](O)c2ccc(F)c(C(F)F)c2F)O[C@@H](n2ccc3c(N)ncnc32)[C@@H]1O [Example 68, 7-{(5S)-5-C-[3-(difluoromethyl)-2,4-difluorophenyl]-3-C-methyl-beta-D-ribofuranosyl}-7H-pyrrolo[2,3-d]pyrimidin-4-amine] |  |  | > 10000 nM |
| C[C@@]1(O)[C@@H]([C@@H](O)c2ccc(F)cc2Cl)O[C@@H](n2ccc3c(N)ncnc32)[C@@H]1O [Example 49, 7-[(5S)-5-C-(2-chloro-4-fluorophenyl)-3-C-methyl-beta-D-ribofuranosyl]-7H-pyrrolo[2,3-d]pyrimidin-4-amine] |  |  | > 10000 nM |
